Values quoted from earlier work in US20180185509A1, “AMATOXIN-CONJUGATES WITH IMPROVED LINKAGES” (Heidelberg Pharma GmbH, priority 2011, published 2018).

Target: RNA-polymerase II (Homo sapiens, UniProt P24928)
Conditions: read-out: KD of the complex between amanitin and RNA-polymerase II

## amanitin
  Kd: 3 nM
